# Assays:
# [1] = system: wild-type zebrafish larvae; test: Behavioral assay: light-induced motion response of wild-type larvae; assay type: in vivo, Zebrafish (Danio rerio); details: DABCO, singlet oxygen quencher
# Procedure: A total of 1,000 compounds were selected from the ChemBridge Corp. catalog. Compounds were dissolved in DMSO at a stock concentration of 1 μg/μL (˜1.5 mM). The library was screened at a 1:100 dilution in E3 solution for a final concentration of ˜15 μM. Negative controls were treated with an equal volume of DMSO. Groups of 3 larvae at 3 days post fertilization (dpf) were distributed into the wells of 96-well clear bottom black microplates (07-200-567; Fisher Scientific) in 150 μL E3 before the addition of small molecules. Stock solutions of compounds were added directly to zebrafish in the wells of a 96 well plate (Corning 3631), mixed, and allowed to incubate for 1 h in the dark at 28.5° C. prior to behavioral evaluation in the behavioral assay. Ordering information: 1 (5533696; ChemBridge); 3 (5538408; ChemBridge).
# Larvae in each of the wells were exposed to four 1 second flashes of light stimulus in the following order: 450-500 nm (WL1), 415-455 nm (WL2), 352-402 nm (WL3), white light (WL4), with a 5 second inter-stimulus interval. Digital video recording was performed for 5 seconds before the first light stimuli and continued throughout the stimulation sequence. Band pass filters (Semrock FF02-475/50, FF02-435/40, FF01-377/50) were used to restrict the excitation light to the indicated wavelengths. […] 290 frames of digital video were recorded per well at 10 FPS using an EMCCD camera (C9100; Hamamatsu) mounted on an inverted compound microscope (AxioObserver A1; Zeiss) with a NA 0.03 1.25× objective and a barrier with a 0.7 mm diameter opening to restrict light scattering to the sample. MetaMorph software (Molecular Devices) was used to control the execution of TTL signals and camera capture using the built-in stream acquisition with trigger function. Each video was saved for review. Light stimuli were generated with an ozone free 300-Watt xenon bulb housed in a Lambda LS illuminator (Sutter Instruments). A dichroic mirror (T510LPXRXT; Chroma) was used for appropriate excitation of samples and bright field acquisition. Schott longpass absorption glass (RG610; Chroma) was added in the transmitted light path to reduce unwanted excitation to the well and to provide sufficient light for video recording. All behavioral experiments were conducted at room temperature. […]
# To analyze digital video recordings, custom MetaMorph software scripts were used to automatically threshold the video to identify the area of larvae in each frame. Threshold images of the frames after each light activation event were overlaid to calculate a new combined threshold area. The motion index was calculated as the percentage change between the threshold area in the frame right before light activation and the new combined threshold area. This motion index correlates with the overall amount of motion in the well.
# Trpa1b mutant larvae = details: previously identified; cited from earlier work
# [2] = system: wild-type zebrafish larvae; details: reference [23]; cited from earlier work
compound,measurement,setting,value
Cc1cc(/C=C2/SC(=S)NC2=O)c(C)n1-c1cccnc1 [optovin],effect of DABCO on light-induced motion response,[1],abolished
same,activity in Trpa1b mutant zebrafish,Trpa1b mutant larvae,abolished
same,suppression of response by DABCO,[2],completely suppress

# — US20220280644A1, “"TRPswitch" - A STEP FUNCTION CHEMO-OPTOGENETIC LIGAND” (UNIVERSITY OF UTAH RESEARCH FOUNDATION, priority 2019, published 2022)
